Experimental data reported in US20240173279A1, “Method of Treatment for Autophagy Diseases by Administration of Dexibuprofen and Use of Dexibuprofen for Preparation of a Medicament for Same” (JEM THERAPEUTICS PBC, priority 2021, published 2024).
Where two headings read alike, the source gives them in different places.

Legend:
[1] = cited from earlier work; for safety / side effect profile compared to ibuprofen: published studies, incl. pediatric population
[2] = in vivo; cited from earlier work
[3] = tested on: Hereditary Spastic Paraparesis, homozygous TECPR2 mutations; assay: Treatment of a patient with Hereditary Spastic Paraparesis (Example 2); type: in vivo; conditions: human patient, daily oral doses, after 30 days of treatment
Method: A human patient is tested and found to be homozygous for TECPR2 mutations and suffering from neurodegenerative issues related to Hereditary Spastic Paraparesis. The patient is given daily oral doses of dexibuprofen to reduce the effects of the disease.

| Structure (SMILES) | safety profile compared to acetaminophen ([1]; in vivo) | safety / side effect profile compared to ibuprofen [1] | safety / side effect profile compared to ibuprofen ([1]; listed as dexibuprofen) | crossing of the blood brain barrier (BBB) [2] | neurodegenerative issues relating to TECPR2 mutations [3] |
| --- | --- | --- | --- | --- | --- |
| CC(C)Cc1ccc([C@H](C)C(=O)O)cc1 [Dexibuprofen, (S)-a-methyl-4-(2-methylpropyl)benzeneacetic acid] | superior safety profile to acetaminophen | extremely similar to ibuprofen | did not note safety differences | crosses the blood brain barrier | reduced neurodegenerative issues |
| CC(C)Cc1ccc(C(C)C(=O)O)cc1 (stereo not drawn) [ibuprofen] |  |  |  | crosses the blood brain barrier |  |
